This is an account of results in patent US20230257372A1 (CHONG KUN DANG PHARMACEUTICAL CORP., priority 2020, published 2023).

The target in test [1] is T1, human recombinant HDAC1 (Homo sapiens, UniProt Q13547).
T1 construct: purchased Enzo Life Science, Inc. BML-SE456
Put plainly: HDAC1 enzyme activity inhibition (HDAC Fluorimetric Drug Discovery Kit). The class given is biochemical. As to conditions: read-out: HDAC1. The gist of the method:
(§1)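 Fluorescence from a Fluor de Lys developer step (30 minutes) reports residual deacetylation after a 60-minute, 30° C reaction of […] enzyme with 10 μM substrate and 5-fold compound dilutions.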

Test [2] deals with T2, human recombinant HDAC6 (Homo sapiens, UniProt Q9UBN7).
T2 construct: purchased Calbiochem Inc. 382180
T2 sequence (Q9UBN7 1-1215): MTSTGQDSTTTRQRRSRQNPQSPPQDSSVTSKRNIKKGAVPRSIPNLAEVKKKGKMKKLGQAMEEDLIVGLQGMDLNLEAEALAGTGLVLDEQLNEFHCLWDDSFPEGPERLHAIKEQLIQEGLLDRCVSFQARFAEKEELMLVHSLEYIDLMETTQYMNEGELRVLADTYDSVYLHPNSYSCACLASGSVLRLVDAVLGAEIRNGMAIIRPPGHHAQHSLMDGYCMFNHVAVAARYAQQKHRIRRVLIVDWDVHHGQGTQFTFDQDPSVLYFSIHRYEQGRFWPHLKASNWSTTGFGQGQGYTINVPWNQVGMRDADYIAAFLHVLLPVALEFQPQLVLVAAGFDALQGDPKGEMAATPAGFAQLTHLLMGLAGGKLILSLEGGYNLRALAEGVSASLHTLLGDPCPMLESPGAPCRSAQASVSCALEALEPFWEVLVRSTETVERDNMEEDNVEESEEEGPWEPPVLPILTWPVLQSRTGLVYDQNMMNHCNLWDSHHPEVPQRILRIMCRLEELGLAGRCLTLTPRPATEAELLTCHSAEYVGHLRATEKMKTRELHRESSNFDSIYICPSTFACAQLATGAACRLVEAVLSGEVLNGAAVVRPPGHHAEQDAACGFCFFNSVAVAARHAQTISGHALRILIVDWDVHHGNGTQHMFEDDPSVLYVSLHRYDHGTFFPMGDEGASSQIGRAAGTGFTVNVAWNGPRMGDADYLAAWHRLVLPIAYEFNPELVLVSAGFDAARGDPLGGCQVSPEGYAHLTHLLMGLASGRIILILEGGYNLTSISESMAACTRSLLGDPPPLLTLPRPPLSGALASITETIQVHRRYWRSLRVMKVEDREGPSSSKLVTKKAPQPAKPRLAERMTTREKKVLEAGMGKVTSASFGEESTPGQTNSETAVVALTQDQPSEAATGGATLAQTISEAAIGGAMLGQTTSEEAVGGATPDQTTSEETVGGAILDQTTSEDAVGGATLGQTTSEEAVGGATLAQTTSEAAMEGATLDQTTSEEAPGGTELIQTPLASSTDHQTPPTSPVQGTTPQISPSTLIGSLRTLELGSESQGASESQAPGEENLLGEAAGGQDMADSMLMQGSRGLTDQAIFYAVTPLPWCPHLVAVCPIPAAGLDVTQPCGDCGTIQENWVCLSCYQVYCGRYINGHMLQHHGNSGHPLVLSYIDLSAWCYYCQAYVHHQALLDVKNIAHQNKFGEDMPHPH
Description: HDAC6 enzyme activity inhibition (HDAC Fluorimetric Drug Discovery Kit). The class given is biochemical. The gist of the method:
as §1

Where [3] appears, read: human recombinant HDAC1, Fluor de Lys substrate, 30° C. 60 minutes.
Where [4] appears, read: human recombinant HDAC6, same protocol as HDAC1.
The mark [5] stands for this setting: human recombinant HDAC1, IC50 calculated with GraphPad Prism.
Setting [6] is: human recombinant HDAC6, IC50 calculated with GraphPad Prism.

Structures are written as SMILES. Read-outs that look alike come from different tables or passages of the source.

T1 sequence (Q13547 whole entry): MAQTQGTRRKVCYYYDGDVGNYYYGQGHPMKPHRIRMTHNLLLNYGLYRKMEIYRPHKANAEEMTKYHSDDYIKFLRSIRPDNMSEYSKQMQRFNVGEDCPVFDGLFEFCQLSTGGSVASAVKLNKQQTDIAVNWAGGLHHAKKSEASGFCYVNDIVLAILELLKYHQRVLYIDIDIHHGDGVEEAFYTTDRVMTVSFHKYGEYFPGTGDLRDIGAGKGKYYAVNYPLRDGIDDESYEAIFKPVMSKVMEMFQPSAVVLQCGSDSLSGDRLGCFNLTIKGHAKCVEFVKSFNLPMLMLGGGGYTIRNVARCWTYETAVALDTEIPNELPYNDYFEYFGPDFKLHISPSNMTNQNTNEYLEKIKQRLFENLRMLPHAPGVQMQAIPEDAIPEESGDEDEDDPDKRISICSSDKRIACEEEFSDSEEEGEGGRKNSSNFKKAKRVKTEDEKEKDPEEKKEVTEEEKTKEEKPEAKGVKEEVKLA

Consider `CN(C)Cc1ccc(-c2cn(Cc3ncc(-c4nnc(C(F)F)o4)cc3F)nn2)s1` [Compound 18311, 1-(5-(1-((5-(5-(difluoromethyl)-1,3,4-oxadiazol-2-yl)-3-fluoropyridin-2-yl)methyl)-1H-1,2,3-triazol-4-yl)thiophen-2-yl)-N,N-dimethylmethanamine], for which the IC50 in test [1] (setting [3]) is more than 50000 nM; in test [2] (setting [4]), 53.5 nM. Moreover, the “HDAC6 selectivity (fold)” value in test [2] (HDAC6 over HDAC1) is listed as 934 fold.

Take `FC(F)c1nnc(-c2ccc(Cn3cc(-c4ccc5c(c4)CNC5)nn3)nc2)o1` [Compound 4539, 2-(difluoromethyl)-5-(6-((4-(isoindolin-5-yl)-1H-1,2,3-triazol-1-yl)methyl)pyridin-3-yl)-1,3,4-oxadiazole]: the IC50 is more than 50000 nM in test [1] (setting [3]) and 64.4 nM in test [2] (setting [4]). For the same molecule, in test [2] (HDAC6 over HDAC1), the “HDAC6 selectivity (fold)” value turned out to be 776 fold.

For the molecule `Fc1cc(-c2nnc(C(F)F)o2)cnc1Cn1cc(-c2ccc3cn[nH]c3c2)nn1` [Compound 18919, 2-(6-((4-(1H-indazol-6-yl)-1H-1,2,3-triazol-1-yl)methyl)-5-fluoropyridin-3-yl)-5-(difluoromethyl)-1,3,4-oxadiazole], the figures for the IC50 in test [1] (setting [3]) and in test [2] (setting [4]) were more than 50000 nM and 60.2 nM, respectively. In test [2] (HDAC6 over HDAC1), the “HDAC6 selectivity (fold)” value was 830 fold.

In the case of `CC(C)(C)OC(=O)Nc1cccc(-c2cn(Cc3ccc(-c4nnc(C(F)F)o4)cc3F)nn2)c1` [Compound 3697, Tert-butyl (3-(1-(4-(5-(difluoromethyl)-1,3,4-oxadiazol-2-yl)-2-fluorobenzyl)-1H-1,2,3-triazol-4-yl)phenyl)carbamate], the values for the IC50 in test [1] (setting [5]) and in test [2] (setting [6]) were more than 50000 nM and 45.4 nM, respectively. The “HDAC6 selectivity (fold)” value in test [2] (HDAC1 IC50 / HDAC6 IC50) is 1101 fold.

Regarding `CN(C)c1cccc(-c2cn(Cc3ccc(-c4nnc(C(F)F)o4)cc3)nn2)c1` [Compound 4323, 3-(1-(4-(5-(difluoromethyl)-1,3,4-oxadiazol-2-yl)benzyl)-1H-1,2,3-triazol-4-yl)-N,N-dimethylaniline], the IC50 in test [1] (setting [5]) was more than 50000 nM; in test [2] (setting [6]), 161 nM. The “HDAC6 selectivity (fold)” value in test [2] (HDAC1 IC50 / HDAC6 IC50) is listed as 310 fold.

With `Fc1c(-c2cn(Cc3ccc(-c4nnc(C(F)F)o4)cn3)nn2)cccc1N1CCN(C2CCC2)CC1` [Compound 4572, 2-(6-((4-(3-(4-cyclobutylpiperazin-1-yl)-2-fluorophenyl)-1H-1,2,3-triazol-1-yl)methyl)pyridin-3-yl)-5-(difluoromethyl)-1,3,4-oxadiazole], the IC50 is more than 50000 nM in test [1] (setting [3]) and 19.5 nM in test [2] (setting [4]). Further, in test [2] (HDAC6 over HDAC1), the “HDAC6 selectivity (fold)” value was 2564 fold.

Take `Fc1cc(-c2nnc(C(F)F)o2)ccc1Cn1cc(-c2cccc(C(F)F)c2)nn1` [Compound 4488, 2-(difluoromethyl)-5-(4-((4-(3-(difluoromethyl)phenyl)-1H-1,2,3-triazol-1-yl)methyl)-3-fluorophenyl)-1,3,4-oxadiazole]: the values for the IC50 in test [1] (setting [5]) and in test [2] (setting [6]) were more than 50000 nM and 47.2 nM, respectively. Besides, the “HDAC6 selectivity (fold)” value in test [2] (HDAC1 IC50 / HDAC6 IC50) was determined as 1059 fold.

On to `Fc1cc(-c2nnc(C(F)F)o2)ccc1Cn1cc(-c2ccccc2CN2CCCC2)nn1` [Compound 4585, 2-(difluoromethyl)-5-(3-fluoro-4-((4-(2-(pyrrolidin-1-ylmethyl)phenyl)-1H-1,2,3-triazol-1-yl)methyl)phenyl)-1,3,4-oxadiazole], for which the IC50 in test [1] (setting [3]) is more than 50000 nM; in test [2] (setting [4]), 210 nM. For the same molecule, the “HDAC6 selectivity (fold)” value in test [2] (HDAC6 over HDAC1) was 237 fold.

Take `FC(F)c1nnc(-c2ccc(Cn3cc(-c4ccc(Cl)nc4)nn3)nc2)o1` [Compound 3882, 2-(6-((4-(6-chloropyridin-3-yl)-1H-1,2,3-triazol-1-yl)methyl)pyridin-3-yl)-5-(difluoromethyl)-1,3,4-oxadiazole]: the IC50 in test [1] (setting [5]) was more than 50000 nM; in test [2] (setting [6]), 50.6 nM. Moreover, the “HDAC6 selectivity (fold)” value in test [2] (HDAC1 IC50 / HDAC6 IC50) is recorded as 988 fold.

As to `FC(F)c1nnc(-c2ccc(Cn3cnc(Br)c3)nc2)o1` [Compound 3949, 2-(6-((4-bromo-1H-imidazol-1-yl)methyl)pyridin-3-yl)-5-(difluoromethyl)-1,3,4-oxadiazole], the IC50 in test [1] (setting [5]) is more than 50000 nM; in test [2] (setting [6]), 112 nM. The “HDAC6 selectivity (fold)” value in test [2] (HDAC1 IC50 / HDAC6 IC50) came out at 445 fold.

On to `CN1CC(NC(=O)c2cccc(-c3cn(Cc4ccc(-c5nnc(C(F)F)o5)cn4)nn3)c2)C1` [Compound 4480, 3-(1-((5-(5-(difluoromethyl)-1,3,4-oxadiazol-2-yl)pyridin-2-yl)methyl)-1H-1,2,3-triazol-4-yl)-N-(1-methylazetidin-3-yl)benzamide], for which the IC50 was more than 50000 nM in test [1] (setting [5]) and 36 nM in test [2] (setting [6]). For the same molecule, in test [2] (HDAC1 IC50 / HDAC6 IC50), the “HDAC6 selectivity (fold)” value is 1388 fold.

As to `CN1CCN(Cc2ccc(-c3cn(Cc4ccc(-c5nnc(C(F)F)o5)cc4F)nn3)cc2)CC1` [Compound 4473, 2-(difluoromethyl)-5-(3-fluoro-4-((4-(4-((4-methylpiperazin-1-yl)methyl)phenyl)-1H-1,2,3-triazol-1-yl)methyl)phenyl)-1,3,4-oxadiazole], the IC50 in test [1] (setting [5]) was more than 50000 nM; in test [2] (setting [6]), 39.9 nM. In test [2] (HDAC1 IC50 / HDAC6 IC50), the “HDAC6 selectivity (fold)” value amounted to 1253 fold.

In the case of `CN(C)Cc1cc(Cl)cc(-c2cn(Cc3ccc(-c4nnc(C(F)F)o4)cc3F)nn2)c1` [Compound 18483, 1-(3-chloro-5-(1-(4-(5-(difluoromethyl)-1,3,4-oxadiazol-2-yl)-2-fluorobenzyl)-1H-1,2,3-triazol-4-yl)phenyl)-N,N-dimethylmethanamine], the IC50 in test [1] (setting [3]) is more than 50000 nM; in test [2] (setting [4]), 51.5 nM. In addition, in test [2] (HDAC6 over HDAC1), the “HDAC6 selectivity (fold)” value is reported as 970 fold.

Regarding `Fc1cc(-c2nnc(C(F)F)o2)ccc1Cn1cc(-c2ccc(CN3CCCC3)nc2)nn1` [Compound 18175, 2-(difluoromethyl)-5-(3-fluoro-4-((4-(6-(pyrrolidin-1-ylmethyl)pyridin-3-yl)-1H-1,2,3-triazol-1-yl)methyl)phenyl)-1,3,4-oxadiazole], the IC50 in test [1] (setting [3]) was more than 50000 nM; in test [2] (setting [4]) it was 42.2 nM. In test [2] (HDAC6 over HDAC1), the “HDAC6 selectivity (fold)” value stood at 1184 fold.

Consider `CC(=O)N1CC(c2cn(Cc3ccc(-c4nnc(C(F)F)o4)cn3)nn2)C1` [Compound 3956, 1-(3-(1-((5-(5-(difluoromethyl)-1,3,4-oxadiazol-2-yl)pyridin-2-yl)methyl)-1H-1,2,3-triazol-4-yl)azetidin-1-yl)ethan-1-one], for which the IC50 in test [1] (setting [5]) is more than 50000 nM; in test [2] (setting [6]), 536 nM. Also, the “HDAC6 selectivity (fold)” value in test [2] (HDAC1 IC50 / HDAC6 IC50) is reported as 93 fold.

Consider `CC(C)(C)OC(=O)NC1(C(=O)Nc2cccc(-c3cn(Cc4ccc(-c5nnc(C(F)F)o5)cn4)nn3)c2)CCC1` [Compound 4496, tert-butyl (1-((3-(1-((5-(5-(difluoromethyl)-1,3,4-oxadiazol-2-yl)pyridin-2-yl)methyl)-1H-1,2,3-triazol-4-yl)phenyl)carbamoyl)cyclobutyl)carbamate], for which the IC50 in test [1] (setting [5]) was more than 50000 nM; in test [2] (setting [6]), 14.9 nM. The “HDAC6 selectivity (fold)” value in test [2] (HDAC1 IC50 / HDAC6 IC50) is listed as 3355 fold.

Consider `CC(C)(C)C(=O)N1CCC(c2cn(Cc3ccc(-c4nnc(C(F)F)o4)cn3)nn2)CC1` [Compound 3893, 1-(4-(1-((5-(5-(difluoromethyl)-1,3,4-oxadiazol-2-yl)pyridin-2-yl)methyl)-1H-1,2,3-triazol-4-yl)piperidin-1-yl)-2,2-dimethylpropan-1-one], for which the IC50 in test [1] (setting [5]) was more than 50000 nM; in test [2] (setting [6]), 153 nM. In addition, the “HDAC6 selectivity (fold)” value in test [2] (HDAC1 IC50 / HDAC6 IC50) amounted to 326 fold.

As to `Fc1cc(-c2nnc(C(F)F)o2)ccc1Cn1cc(-c2ccccc2CN2CC3(COC3)C2)nn1` [Compound 4586, 6-(2-(1-(4-(5-(difluoromethyl)-1,3,4-oxadiazol-2-yl)-2-fluorobenzyl)-1H-1,2,3-triazol-4-yl)benzyl)-2-oxa-6-azaspiro[3.3]heptane], the IC50 was more than 50000 nM in test [1] (setting [3]) and 222 nM in test [2] (setting [4]). Moreover, the “HDAC6 selectivity (fold)” value in test [2] (HDAC6 over HDAC1) amounted to 225 fold.
